The values that follow come from patent publication US9399638B2, “Substituted pyridine compounds as CRAC modulators” (LUPIN LIMITED, priority 2012, dated 2016).

For this test, the system named is IL-2 secretion by Jurkat T cells. Nature of the test: Inhibition of IL-2 secretion. The following applies: Homo sapiens; Jurkat T cells stimulated with PHA, 20 to 24 hours, IL-2 by ELISA. It counts as cell-based. Here is the method:
The CRAC channel modulatory activity of the compounds were thus evaluated by measuring the secretion of IL-2 by antigen stimulated T-cells in vitro. Alternatively, such activity can also be evaluated by assay methods known to one skilled in the art.
Inhibition of IL-2 secretion: Jurkat T cells were seeded at a density of 0.5 to 1 million cells per well in RPMI medium. Test compounds from this invention were added to the cells at different concentrations. This was followed by the addition of PHA, a T cell mitogen after 10 minutes. The cells were then incubated for 20 to 24 hours in a CO2 incubator at 37° C. After incubation with the compounds, cells were centrifuged, the supernatant was collected and processed for ELISA to quantitate the amount of IL-2 secreted. A commercial ELISA kit (R&D Systems, Inc. Minneapolis, Minn., USA) was used to estimate the IL-2 concentrations. Amount of IL-2 secreted by cells stimulated with PHA was considered as a 100% maximal signal and the decrease in amount of IL-2 secreted by cells treated with the test compounds was expressed as percent inhibition of the maximal signal. The dose response data was analyzed using 4-parametric sigmoidal dose response (variable slope) curve—fit.
(In general: An ELISA detects its analyte on a solid surface through an enzyme-linked reagent.)
On to `Cn1nc(-c2cnc(C3CC3)c(-c3ccc(C(=O)Nc4c(F)cccc4F)s3)c2)oc1=O` [Example 59, 5-(2-Cyclopropyl-5-(4-methyl-5-oxo-4,5-dihydro-1,3,4-oxadiazol-2-yl)pyridin-3-yl)-N-(2,6-difluorophenyl)thiophene-2-carboxamide], for which the IC50 was less than 100 nM.

`Cn1nc(-c2cnc(C(F)(F)F)c(-c3ccc(NC(=O)c4c(F)cccc4Cl)cc3)c2)oc1=O` [Example 9, 2-Chloro-6-fluoro-N-(4-(5-(4-methyl-5-oxo-4,5-dihydro-1,3,4-oxadiazol-2-yl)-2-(trifluoromethyl)pyridin-n-3-yl)phenyl)benzamide] came in with an IC50 of 100 to 1000 nM.

For the molecule `CCc1ncc(-c2nn(C)c(=O)o2)cc1-c1ccc(NC(=O)c2c(C)cccc2F)cc1` [Example 47, N-(4-(2-Ethyl-5-(4-methyl-5-oxo-4,5-dihydro-1,3,4-oxadiazol-2-yl)pyridin-3-yl)phenyl)-2-fluoro-6-methylbenzamide], the IC50 was 100 to 1000 nM.

Molecule `Cc1ncc(-c2nn(C)c(=O)o2)cc1-c1ccc(C(=O)Nc2c(F)cccc2F)s1` [Example 58, N-(2,6-Difluorophenyl)-5-(2-methyl-5-(4-methyl-5-oxo-4,5-dihydro-1,3,4-oxadiazol-2-yl)pyridin-3-yl)thiophene-2-carboxamide] returned a half-inhibitory concentration (IC50) of 100 to 1000 nM.

Molecule `CCc1ncc(-c2nn(C)c(=O)o2)cc1-c1ccc(NCc2c(F)cccc2F)cn1` [Example 40, 5-(5-((2,6-Difluorobenzyl)amino)-2′-ethyl-[2,3′-bipyridin]-5′-yl)-3-methyl-1,3,4-oxadiazol-2(3H)-one] gave an IC50 of 100 to 1000 nM.

With `Cn1nc(-c2cc(Cl)cc(-c3ccc(NC(=O)c4c(F)cccc4F)cc3)n2)oc1=O` [Example 24, N-(4-(4-Chloro-6-(4-methyl-5-oxo-4,5-dihydro-1,3,4-oxadiazol-2-yl)pyridin-2-yl)phenyl)-2,6-difluorobenzamide], the concentration for half-maximal inhibition (IC50) was more than 1000 nM.

Take `CCc1ncc(-c2nn(C)c(=O)o2)cc1-c1ccc(NC(=O)c2c(F)cccc2F)nc1` [Example 30, N-(2′-ethyl-5′-(4-methyl-5-oxo-4,5-dihydro-1,3,4-oxadiazol-2-yl)-[3,3′-bipyridin]-6-yl)-2,6-difluorobenzamide]: the half-inhibitory concentration (IC50) was less than 100 nM.

The molecule `CCc1ncc(-c2nn(C)c(=O)o2)cc1-c1cnc(NC(=O)c2c(F)cccc2F)cn1` [Example 53, 2,6-Difluoro-N-(5-(2-ethyl-5-(4-methyl-5-oxo-4,5-dihydro-1,3,4-oxadiazol-2-yl)pyridin-3-yl)pyrazin-2-yl)benzamide] yielded an IC50 of 100 to 1000 nM.

The molecule `CCc1ncc(-c2nn(C)c(=O)o2)cc1-c1ccc(C(=O)Nc2c(F)cccc2F)cc1` [Example 3, N-(2,6-Difluorophenyl)-4-(2-ethyl-5-(4-methyl-5-oxo-4,5-dihydro-1,3,4-oxadiazol-2-yl)pyridin-3-yl)benzamide] yielded an IC50 of 100 to 1000 nM.

`Cn1nc(-c2cnc(-c3ccc(NC(=O)c4c(F)cccc4F)cc3)c(C3CC3)c2)oc1=O` [Example 66, N-(4-(3-Cyclopropyl-5-(4-methyl-5-oxo-4,5-dihydro-1,3,4-oxadiazol-2-yl)pyridin-2-yl)phenyl)-2,6-difluorobenzamide] showed an IC50 of 100 to 1000 nM.

In turn, `CCc1c(-c2nn(C)c(=O)o2)ccnc1-c1ccc(NC(=O)c2c(F)cccc2F)cc1` [Example 18, N-(4-(3-Ethyl-4-(4-methyl-5-oxo-4,5-dihydro-1,3,4-oxadiazol-2-yl)pyridin-2-yl)phenyl)-2,6-difluorobenzamide] had an IC50 of more than 1000 nM.

As to `CCOc1cc(-c2ccc(NC(=O)c3c(F)cccc3F)cc2)nc(-c2nn(C)c(=O)o2)c1` [Example 25, N-(4-(4-Ethoxy-6-(4-methyl-5-oxo-4,5-dihydro-1,3,4-oxadiazol-2-yl)pyridin-2-yl)phenyl)-2,6-difluorobenzamide], the 50% inhibitory concentration (IC50) is more than 1000 nM.

Consider `CCc1ncc(-c2nn(C)c(=O)o2)cc1-c1ccc(NC(=O)c2c(C)noc2C)cc1` [Example 50, N-(4-(2-Ethyl-5-(4-methyl-5-oxo-4,5-dihydro-1,3,4-oxadiazol-2-yl)pyridin-3-yl)phenyl)-3,5-dimethylisoxazole-4-carboxamide], for which the IC50 is more than 1000 nM.

`Cn1nc(-c2cnc(C(F)(F)F)c(-c3ccc(NC(=O)c4c(F)cccc4F)cc3)c2)oc1=O` [Example 7, 2,6-difluoro-N-(4-(5-(4-methyl-5-oxo-4,5-dihydro-1,3,4-oxadiazol-2-yl)-2-(trifluoromethyl)pyridin-3-yl)phenyl)benzamide]: the half-maximal inhibitory concentration (IC50) is less than 100 nM.

The molecule `Cn1nc(-c2cc(C3CC3)cnc2-c2ccc(NC(=O)c3c(F)cccc3F)cc2)oc1=O` [Example 67, N-(4-(5-Cyclopropyl-3-(4-methyl-5-oxo-4,5-dihydro-1,3,4-oxadiazol-2-yl)pyridin-2-yl)phenyl)-2,6-difluorobenzamide] gave an IC50 of more than 1000 nM.

`Cn1nc(-c2cnc(C3CC3)c(-c3ccc(NC(=O)c4c(F)cccc4F)cn3)c2)oc1=O` [Example 35, N-(2′-Cyclopropyl-5′-(4-methyl-5-oxo-4,5-dihydro-1,3,4-oxadiazol-2-yl)-[2,3′-bipyridin]-5-yl)-2,6-difluorobenzamide] displayed an IC50 of less than 100 nM.

Regarding `Cc1ncc(-c2nn(C)c(=O)o2)cc1-c1ccc(C(=O)Nc2c(F)cccc2F)n1C` [Example 62, N-(2,6-Difluorophenyl)-1-methyl-5-(2-methyl-5-(4-methyl-5-oxo-4,5-dihydro-1,3,4-oxadiazol-2-yl)pyridin-3-yl)-1H-pyrrole-2-carboxamide], the IC50 fell in the range of 100 to 1000 nM.

`Cn1nc(-c2cnc(C(F)(F)F)c(-c3cnc(NC(=O)c4c(F)cccc4F)cn3)c2)oc1=O` [Example 37, 2,6-Difluoro-N-(5-(5-(4-methyl-5-oxo-4,5-dihydro-1,3,4-oxadiazol-2-yl)-2-(trifluoromethyl)pyridine-3-yl)pyrazin-2-yl)benzamide] displayed an IC50 of less than 100 nM.

With `CCc1ncc(-c2nn(C)c(=O)o2)cc1-c1ccc(C(=O)Nc2c(F)cccc2F)o1` [Example 44, N-(2,6-Difluorophenyl)-5-(2-ethyl-5-(4-methyl-5-oxo-4,5-dihydro-1,3,4-oxadiazol-2-yl)pyridin-3-yl)furan-2-carboxamide], the concentration for half-maximal inhibition (IC50) is more than 1000 nM.

Turning to `Cc1ncc(-c2nn(C)c(=O)o2)cc1-c1cnc(NC(=O)c2c(F)cccc2F)cn1` [Example 55, 2,6-Difluoro-N-(5-(2-methyl-5-(4-methyl-5-oxo-4,5-dihydro-1,3,4-oxadiazol-2-yl)pyridin-3-yl)pyrazin-2-yl)benzamide], the concentration for half-maximal inhibition (IC50) was in the range of 100 to 1000 nM.

`Cn1nc(-c2cnc(C3CC3)c(-c3cnc(NC(=O)c4c(F)cccc4Cl)cn3)c2)oc1=O` [Example 34, 2-Chloro-N-(5-(2-cyclopropyl-5-(4-methyl-5-oxo-4,5-dihydro-1,3,4-oxadiazol-2-yl)pyridin-3-yl)pyrazin-2-yl)-6-fluorobenzamide] displayed an IC50 of 100 to 1000 nM.

`CCc1cc(-c2ccc(NC(=O)c3c(F)cccc3F)cc2)nc(-c2nn(C)c(=O)o2)c1` [Example 64, N-(4-(4-Ethyl-6-(4-methyl-5-oxo-4,5-dihydro-1,3,4-oxadiazol-2-yl)pyridin-2-yl)phenyl)-2,6-difluorobenzamide] had an IC50 of more than 1000 nM.

Molecule `Cc1nnsc1C(=O)Nc1ccc(-c2cc(-c3nn(C)c(=O)o3)cnc2C2CC2)cc1` [Example 28, N-(4-(2-Cyclopropyl-5-(4-methyl-5-oxo-4,5-dihydro-1,3,4-oxadiazol-2-yl)pyridin-3-yl)phenyl)-4-methyl-1,2,3-thiadiazole-5-carboxamide] had an IC50 of 100 to 1000 nM.

As usually defined, the IC50 is the concentration at which inhibition is half-maximal. A low value points to higher potency.
